Measurements from the NIST ThermoML archive (doi:10.1021/je700271n).
Numbers after ± are expanded uncertainties.

Details: Liquid

SMILES	vapor or sublimation pressure (273.15 K)	vapor or sublimation pressure (283.15 K)	vapor or sublimation pressure (293.15 K)	vapor or sublimation pressure (303.15 K)	vapor or sublimation pressure (313.15 K)	vapor or sublimation pressure (323.15 K)
FC(C(F)(F)F)C(F)(F)F [1,1,1,2,3,3,3-heptafluoropropane]	195 ± 3 kPa	280 ± 4 kPa	389 ± 5 kPa	527 ± 7 kPa	704 ± 9 kPa	920 ± 11 kPa
CCC [propane]	476 ± 6 kPa	632 ± 8 kPa	833 ± 10 kPa	1079 ± 13 kPa	1366 ± 17 kPa	1709 ± 21 kPa
